From ChEMBL document CHEMBL3431459, “Roche carnitine palmitoyltransferase modulator screening data (supplementary data associated with the publication CHEMBL2216752)”
pIC50: −log10 of the molar value. In brackets after ≈: the same amount, converted by molar mass.

Experiments:
[1] = target: T1, Carnitine O-palmitoyltransferase 1, muscle isoform (Homo sapiens, UniProt Q92523); assay: SUPPLEMENTARY: Inhibition of Carnitine palmitoyltransferase 1, muscle isoform; set-up: species or system Muscle tissue
T1 sequence (Q92523 whole entry): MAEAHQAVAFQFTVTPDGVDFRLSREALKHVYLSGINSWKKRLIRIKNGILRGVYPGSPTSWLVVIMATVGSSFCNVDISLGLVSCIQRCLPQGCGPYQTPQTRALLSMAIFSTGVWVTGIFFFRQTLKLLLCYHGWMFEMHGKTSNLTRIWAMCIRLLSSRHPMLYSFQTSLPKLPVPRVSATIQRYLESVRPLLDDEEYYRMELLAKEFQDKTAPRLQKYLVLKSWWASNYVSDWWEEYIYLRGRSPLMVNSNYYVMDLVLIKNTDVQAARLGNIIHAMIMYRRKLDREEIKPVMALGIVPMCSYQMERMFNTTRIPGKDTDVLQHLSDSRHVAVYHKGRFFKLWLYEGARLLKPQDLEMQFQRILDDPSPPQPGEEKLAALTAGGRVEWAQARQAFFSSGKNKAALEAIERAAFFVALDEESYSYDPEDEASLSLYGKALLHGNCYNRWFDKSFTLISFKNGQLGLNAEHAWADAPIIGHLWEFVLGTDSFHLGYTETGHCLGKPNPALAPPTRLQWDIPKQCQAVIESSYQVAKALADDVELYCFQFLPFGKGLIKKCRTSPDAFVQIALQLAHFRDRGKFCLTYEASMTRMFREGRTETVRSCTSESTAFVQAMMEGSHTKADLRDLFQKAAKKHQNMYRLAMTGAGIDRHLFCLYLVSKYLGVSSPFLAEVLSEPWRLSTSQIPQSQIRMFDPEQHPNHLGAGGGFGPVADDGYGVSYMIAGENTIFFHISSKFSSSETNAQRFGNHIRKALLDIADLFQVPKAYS

[2] = target: T2, Carnitine O-palmitoyltransferase 2, mitochondrial (Homo sapiens, UniProt P23786); assay: (§1) SUPPLEMENTARY: Inhibition of Carnitine palmitoyltransferase 2
T2 sequence (P23786 whole entry): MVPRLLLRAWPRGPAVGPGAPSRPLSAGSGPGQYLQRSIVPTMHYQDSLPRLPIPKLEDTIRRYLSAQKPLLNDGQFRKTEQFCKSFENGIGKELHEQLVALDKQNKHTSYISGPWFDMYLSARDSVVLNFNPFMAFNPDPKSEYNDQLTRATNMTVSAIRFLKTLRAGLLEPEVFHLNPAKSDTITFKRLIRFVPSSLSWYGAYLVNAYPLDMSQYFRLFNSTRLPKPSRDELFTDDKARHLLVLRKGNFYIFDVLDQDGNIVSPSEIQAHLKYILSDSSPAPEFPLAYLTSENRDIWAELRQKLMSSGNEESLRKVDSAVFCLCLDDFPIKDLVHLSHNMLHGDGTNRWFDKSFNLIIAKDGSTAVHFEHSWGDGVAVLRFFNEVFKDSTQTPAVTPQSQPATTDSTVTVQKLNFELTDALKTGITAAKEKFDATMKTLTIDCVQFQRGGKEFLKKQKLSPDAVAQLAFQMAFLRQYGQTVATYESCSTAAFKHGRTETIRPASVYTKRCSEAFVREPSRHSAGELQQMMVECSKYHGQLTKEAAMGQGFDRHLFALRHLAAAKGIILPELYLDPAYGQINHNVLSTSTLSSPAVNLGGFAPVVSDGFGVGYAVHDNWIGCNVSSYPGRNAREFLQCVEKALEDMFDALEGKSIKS

[3] = target: T3, Carnitine O-palmitoyltransferase 2, mitochondrial (Rattus norvegicus, UniProt P18886); assay: as §1
T3 sequence (P18886 whole entry): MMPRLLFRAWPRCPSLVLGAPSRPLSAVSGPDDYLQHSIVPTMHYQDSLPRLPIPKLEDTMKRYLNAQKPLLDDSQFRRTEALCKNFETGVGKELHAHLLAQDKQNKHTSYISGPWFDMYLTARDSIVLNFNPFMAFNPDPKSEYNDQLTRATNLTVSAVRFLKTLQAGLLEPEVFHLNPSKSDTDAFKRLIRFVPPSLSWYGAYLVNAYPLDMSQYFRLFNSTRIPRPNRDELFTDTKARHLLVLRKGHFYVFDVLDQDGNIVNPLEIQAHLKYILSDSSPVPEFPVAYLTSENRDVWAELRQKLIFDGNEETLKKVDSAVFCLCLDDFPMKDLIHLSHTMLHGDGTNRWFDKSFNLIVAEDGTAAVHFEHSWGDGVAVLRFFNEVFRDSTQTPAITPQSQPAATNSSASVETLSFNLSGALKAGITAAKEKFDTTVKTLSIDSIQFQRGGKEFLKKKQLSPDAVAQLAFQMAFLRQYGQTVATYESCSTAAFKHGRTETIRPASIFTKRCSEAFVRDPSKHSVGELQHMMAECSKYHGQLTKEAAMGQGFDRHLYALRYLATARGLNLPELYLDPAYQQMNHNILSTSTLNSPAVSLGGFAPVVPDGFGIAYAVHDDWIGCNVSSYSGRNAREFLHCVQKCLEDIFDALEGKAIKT

[4] = target: T4, Carnitine O-palmitoyltransferase 1, liver isoform (Homo sapiens, UniProt P50416); assay: (§2) SUPPLEMENTARY: Inhibition of Carnitine palmitoyltransferase 1, liver isoform
T4 sequence (P50416 whole entry): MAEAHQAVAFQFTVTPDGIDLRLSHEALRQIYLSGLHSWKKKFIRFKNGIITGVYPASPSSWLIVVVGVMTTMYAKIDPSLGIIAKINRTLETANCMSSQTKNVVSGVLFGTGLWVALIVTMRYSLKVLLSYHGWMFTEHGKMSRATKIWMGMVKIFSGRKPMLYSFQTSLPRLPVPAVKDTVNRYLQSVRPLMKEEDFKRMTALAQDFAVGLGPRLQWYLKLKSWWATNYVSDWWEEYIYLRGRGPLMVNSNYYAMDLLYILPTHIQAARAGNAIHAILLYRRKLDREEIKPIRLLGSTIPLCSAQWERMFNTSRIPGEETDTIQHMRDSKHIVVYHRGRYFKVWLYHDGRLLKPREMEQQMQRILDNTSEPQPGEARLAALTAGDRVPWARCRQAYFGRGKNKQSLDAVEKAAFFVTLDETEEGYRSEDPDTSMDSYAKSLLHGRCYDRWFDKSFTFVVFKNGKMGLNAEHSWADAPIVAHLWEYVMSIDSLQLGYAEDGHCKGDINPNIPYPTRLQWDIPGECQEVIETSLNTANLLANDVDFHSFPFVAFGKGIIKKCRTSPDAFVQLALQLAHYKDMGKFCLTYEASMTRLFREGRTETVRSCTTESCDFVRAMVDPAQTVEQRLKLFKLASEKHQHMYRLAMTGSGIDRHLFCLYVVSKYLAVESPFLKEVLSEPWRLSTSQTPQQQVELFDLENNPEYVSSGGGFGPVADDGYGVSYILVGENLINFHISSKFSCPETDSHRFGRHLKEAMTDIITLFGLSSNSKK

[5] = target: T5, Carnitine O-palmitoyltransferase 1, liver isoform (Rattus norvegicus, UniProt P32198); assay: as §2
T5 sequence (P32198 whole entry): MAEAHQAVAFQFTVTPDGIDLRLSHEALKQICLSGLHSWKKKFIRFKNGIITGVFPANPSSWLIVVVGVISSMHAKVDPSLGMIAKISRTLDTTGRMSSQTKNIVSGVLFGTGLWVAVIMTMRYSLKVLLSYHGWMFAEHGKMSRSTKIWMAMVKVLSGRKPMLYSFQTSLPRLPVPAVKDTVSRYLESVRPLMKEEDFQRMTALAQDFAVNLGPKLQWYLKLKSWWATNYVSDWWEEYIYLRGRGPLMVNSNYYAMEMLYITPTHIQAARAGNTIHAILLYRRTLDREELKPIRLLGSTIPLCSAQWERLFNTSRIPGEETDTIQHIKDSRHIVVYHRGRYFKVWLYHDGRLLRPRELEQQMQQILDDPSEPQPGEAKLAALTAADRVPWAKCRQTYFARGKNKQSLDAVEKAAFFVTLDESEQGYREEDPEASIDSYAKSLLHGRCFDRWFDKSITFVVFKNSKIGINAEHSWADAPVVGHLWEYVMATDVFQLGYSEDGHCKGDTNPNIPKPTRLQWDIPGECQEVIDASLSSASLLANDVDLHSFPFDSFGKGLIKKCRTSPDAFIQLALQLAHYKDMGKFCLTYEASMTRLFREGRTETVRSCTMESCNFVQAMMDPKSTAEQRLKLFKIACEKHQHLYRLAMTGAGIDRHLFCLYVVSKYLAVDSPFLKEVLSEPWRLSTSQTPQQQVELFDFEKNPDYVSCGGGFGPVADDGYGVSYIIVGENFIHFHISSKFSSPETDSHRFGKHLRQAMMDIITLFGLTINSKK

[6] = SUPPLEMENTARY: Lyophilisation Solubility Assay (LYSA); type: physicochemical; settings: read-out: Kinetic_solubility
[7] = SUPPLEMENTARY: PAMPA permeability assay; type: physicochemical; settings: read-out: Permeability

pIC50 [1]	pIC50 [2]	pIC50 [3]	pIC50 [4]	pIC50 [5]	solubility kinetic [6]	Papp [7]	Structure (SMILES)
< 4.00	< 4.00	< 4.00	6.77	6.33	4 µg/mL (≈ 8.32 µM)	0.71 ×10⁻⁶ cm/s	CCn1cc(Sc2cc(Cl)ccc2OC)c2cc(C(=O)Nc3ccc(C(=O)O)cc3)ccc21
5.71	6.27	5.73	7.13	7.27	15 µg/mL (≈ 29.2 µM)	0.67 ×10⁻⁶ cm/s	CCn1cc(S(=O)(=O)c2cc(Cl)ccc2OC)c2cc(C(=O)Nc3ccc(C(=O)O)cc3)ccc21
5.16	4.73	< 4.00	6.68	7.14	4 µg/mL (≈ 8.15 µM)	2.21 ×10⁻⁶ cm/s	O=C(Nc1ccc(C(=O)O)c(F)c1)c1ccc2c(c1)N(S(=O)(=O)c1cccc(Cl)c1)CCO2
5.04	4.55	4.33	6.88	6.87	345 µg/mL (≈ 647 µM)	2.15 ×10⁻⁶ cm/s	COc1ccc(Cl)cc1S(=O)(=O)N1CCCCc2ccc(C(=O)Nc3ccc(C(=O)O)c(F)c3)cc21
< 4.00	< 4.00	< 4.00	6.95	6.00	138 µg/mL (≈ 308 µM)	3.2 ×10⁻⁶ cm/s	O=C(NC1CC1)c1cncc(-c2noc([C@H]3CCCCN3C(=O)COc3ccccc3)n2)c1
6.21	< 4.00	< 4.00	6.81	6.88	38 µg/mL (≈ 72.9 µM)	2.84 ×10⁻⁶ cm/s	COc1ccc(Cl)cc1S(=O)(=O)N1COc2c(F)cc(C(=O)Nc3ccc(CC(=O)O)cc3)cc21
6.26	< 4.00	< 4.00	7.51	7.28	309 µg/mL (≈ 585 µM)	2.24 ×10⁻⁶ cm/s	COc1ccc(Cl)cc1S(=O)(=O)N1COc2c(F)cc(C(=O)Nc3nc(CC(=O)O)cs3)cc21
4.49	< 4.00	< 4.00	6.85	7.07	34 µg/mL (≈ 69.7 µM)	1.13 ×10⁻⁶ cm/s	COc1ccc(Cl)cc1CN1C(=O)COc2ccc(C(=O)Nc3nc(CC(=O)O)cs3)cc21
4.75	4.82	< 4.00	7.37	7.20	15 µg/mL (≈ 29.6 µM)	2.2 ×10⁻⁶ cm/s	COc1ccc(Cl)cc1S(=O)(=O)N1COc2c(F)cc(C(=O)Nc3ccc(C(=O)O)cc3)cc21
5.56	5.56	5.02	6.89	6.91	73 µg/mL (≈ 135 µM)	1.79 ×10⁻⁶ cm/s	COc1ccc(Cl)cc1S(=O)(=O)N1COc2c(F)cc(C(=O)Nc3ccc(C(=O)O)c(Cl)c3)cc21
5.65	6.17	5.78	7.21	7.68	12 µg/mL (≈ 24 µM)	2.4 ×10⁻⁶ cm/s	COc1ccc(Cl)cc1S(=O)(=O)N1CC(C)c2ccc(C(=O)Nc3ccc(C(=O)O)cc3)cc21 (configuration not stated)
< 4.00	4.95	< 4.00	7.11	7.34	5 µg/mL (≈ 9.6 µM)	2.44 ×10⁻⁶ cm/s	COc1ccc(Cl)cc1S(=O)(=O)N1CCOc2c(F)cc(C(=O)Nc3ccc(C(=O)O)cc3)cc21
< 4.00	< 4.00	< 4.00	7.21	7.13	2 µg/mL (≈ 4.28 µM)	0.53 ×10⁻⁶ cm/s	COc1ccc(Cl)cc1Sc1cn(C)c2ccc(C(=O)Nc3ccc(C(=O)O)cc3)cc12
4.68	6.26	5.36	7.33	7.38	2 µg/mL (≈ 3.87 µM)	1.68 ×10⁻⁶ cm/s	COc1ccc(Cl)cc1S(=O)(=O)N1CCOc2c(C)cc(C(=O)Nc3ccc(C(=O)O)cc3)cc21
< 4.00	4.47	4.17	7.36	7.46	4 µg/mL (≈ 7.64 µM)	3.92 ×10⁻⁶ cm/s	COc1ccc(Cl)cc1S(=O)(=O)N1COc2c(Cl)cc(C(=O)Nc3ccc(C(=O)O)cc3)cc21
< 4.00	5.64	5.28	7.11	6.81	103 µg/mL (≈ 180 µM)	2.65 ×10⁻⁶ cm/s	COc1ccc(Cl)cc1S(=O)(=O)N1CCOc2c1cc(C(=O)Nc1ccc(C(=O)O)cc1)cc2C(F)(F)F
